Reference: the supplement of paper PMC11061612

Assays:
Experiment in all cases: Bliss excess, mean over the matrix (fraction); higher = more synergy
ACHN (Kidney Carcinoma) = system: ACHN (Kidney Carcinoma)
Outline: (§1)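 Cell lines in DMEM/F12 or RPMI with 10% FBS were plated in 1536-well plates, held 24 hours at 37°C, 5% CO2, then given two-drug dose matrices for 72 hours (DMSO typically 0.2%). Viability was read by CellTiter-Glo 2.0 luminescence and scaled as inhibition from 0 (vehicle wells) to 1 (blank wells). Combination Emax is the second-highest inhibition in the matrix; Bliss excess is observed combination effect minus expected EA + EB − EA·EB, EA and EB being single-agent effects.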

[1] = system: AMO-1 (Plasma Cell Myeloma)
Outline: as §1

[2] = system: BT-549 (Breast Carcinoma)
Outline: as §1

[3] = system: HGC-27 (Gastric Carcinoma)
Outline: as §1

[4] = system: HSC-4 (Oral Cavity Carcinoma)
Outline: as §1

[5] = system: KARPAS-299 (T-Cell Non-Hodgkin's Lymphoma)
Outline: as §1

[6] = system: KMOE-2 (Acute Myeloid Leukemia)
Outline: as §1

[7] = system: LU-65 (Non-Small Cell Lung Carcinoma)
Outline: as §1

[8] = system: NCI-H358 (Lung Adenocarcinoma)
Outline: as §1

[9] = system: NEC8 (Other Solid Carcinomas)
Outline: as §1

[10] = system: NUGC-3 (Gastric Carcinoma)
Outline: as §1

[11] = system: OE19 (Esophageal Adenocarcinoma)
Outline: as §1

[12] = system: OVCAR-4 (Ovarian Carcinoma)
Outline: as §1

[13] = system: PANC-04-03 (Pancreatic Carcinoma)
Outline: as §1

PWR-1E (Non-Cancerous) = system: PWR-1E (Non-Cancerous)
Outline: as §1

[14] = system: RF-48 (B-Cell Non-Hodgkin's Lymphoma)
Outline: as §1

[15] = system: SCC-15 (Oral Cavity Carcinoma)
Outline: as §1

[16] = system: SU8686 (Pancreatic Carcinoma)
Outline: as §1

[17] = system: SW13 (Other Solid Carcinomas)
Outline: as §1

UACC-62 (Melanoma) = system: UACC-62 (Melanoma)
Outline: as §1

Row | Compound | Bliss excess (ACHN (Kidney Carcinoma)) | Bliss excess [1] | Bliss excess [2] | Bliss excess [3] | Bliss excess [4] | Bliss excess [5] | Bliss excess [6] | Bliss excess [7] | Bliss excess [8] | Bliss excess [9] | Bliss excess [10] | Bliss excess [11] | Bliss excess [12] | Bliss excess [13] | Bliss excess (PWR-1E (Non-Cancerous)) | Bliss excess [14] | Bliss excess [15] | Bliss excess [16] | Bliss excess [17] | Bliss excess (UACC-62 (Melanoma))
1 | Cc1c2c(nn1C)CSCc1cc(n(C)n1)CSc1cc(c3ccccc3c1)OCCCc1c(C(=O)O)n(C)c3c-2c(Cl)ccc13 [AZD5991] + CCN(CCO)CCCOc1ccc2c(Nc3cc(CC(=O)Nc4cccc(F)c4)[nH]n3)ncnc2c1 [AZD2811] (first compound max 1 µM, 7x7, partner max 1 µM) | 0.0541 | 0.0145 | 0.0908 | 0.0635 | -0.0283 | 0.0426 | 0.0471 | -0.0258 | -0.0392 | 0.0348 | 0.0454 | -0.0098 | 0.0989 | -0.0143 | 0.151 | 0.0211 | -0.0061 | -0.0135 | 0.0895 | -0.0113
2 | COc1cccc2c1C(=O)c1c(O)c3c(c(O)c1C2=O)C[C@@](O)(C(=O)CO)C[C@@H]3O[C@H]1C[C@H](N)[C@H](O)[C@H](C)O1 [Doxorubicin] + Cc1cc2ncnn2cc1Nc1ncc2c(n1)n(C1CCOCC1)c(=O)n2C [AZD7648] (first compound max 1 µM, 7x7, partner max 10 µM) | 0.068 | 0.0818 | 0.0233 | 0.0171 | 0.0047 | 0.1 | 0.0867 | 0.0418 | 0.0186 | 0.0952 | 0.0285 | 0.0189 | -0.0056 | -0.0394 | 0.12 | 0.021 | 0.0028 | -0.0262 | 0.0466 | 0.0306
3 | NC1(C(=O)N[C@@H](CCO)c2ccc(Cl)cc2)CCN(c2ncnc3[nH]ccc23)CC1 [Capivasertib] + Cn1cnc2c(F)c(Nc3ccc(Br)cc3Cl)c(C(=O)NOCCO)cc21 [Selumetinib] (first compound max 10 µM, 7x7, partner max 10 µM) | 0.0379 | 0.0678 | 0.01 | -0.0414 | -0.0133 | 0.117 | 0.0417 | -0.0119 | -0.0396 | 0.0013 | -0.0007 | 0.0786 | -0.0254 | 0.0247 | -0.0246 | -0.0343 | -0.0334 | 0.0012 | 0.102 | 0.0562
4 | COc1cccc(OCCCN)c1-c1cc(Nc2cnc(C#N)cn2)n[nH]1 [Prexasertib] + CN(C)CCCOc1ccc(-c2ccc3ncc4c(c3c2)n(C2CCOCC2)c(=O)n4C)cn1 [AZD0156] (first compound max 1 µM, 7x7, partner max 1 µM) | -0.0318 | -0.0341 | -0.0094 | -0.0193 | -0.0079 | 0.0074 | -0.0363 | -0.023 | -0.034 | -0.009 | 0.0083 | 0.0198 | 0.0086 | -0.0328 | -0.0276 | 0.0213 | -0.0333 | -0.0068 | 0.0256 | 0.0155
5 | NC1(C(=O)N[C@@H](CCO)c2ccc(Cl)cc2)CCN(c2ncnc3[nH]ccc23)CC1 [Capivasertib] + CC(C)n1c(=O)n(C)c2cnc3cc(F)c(-c4ccc(OCCCN5CCCCC5)nc4)cc3c21 [AZD1390] (first compound max 10 µM, 7x7, partner max 0.3 µM) | -0.0389 | 0.0042 | -0.071 | -0.053 | -0.0891 | 0.015 | -0.0666 | -0.248 | -0.0088 | -0.0089 | -0.0372 | -0.0026 | -0.0488 | -0.0997 | -0.0341 | -0.0052 | -0.0796 | -0.0484 | 0.0127 | -0.0888
6 | Cn1cnc2c(F)c(Nc3ccc(Br)cc3Cl)c(C(=O)NOCCO)cc21 [Selumetinib] + C=CCn1c(=O)c2cnc(Nc3ccc(N4CCN(C)CC4)cc3)nc2n1-c1cccc(C(C)(C)O)n1 [AZD1775] (first compound max 10 µM, partner max 1 µM) | -0.0527 | -0.0108 | -0.0578 | -0.052 | -0.041 | 0.0463 | 0.0111 | 0.0065 | -0.0471 | 0.0185 | -0.0757 | -0.132 | -0.0698 | -0.0351 | -0.0663 | -0.0372 | -0.075 | -0.0089 | -0.0576 | -0.0006
7 | Cc1c2c(nn1C)CSCc1cc(n(C)n1)CSc1cc(c3ccccc3c1)OCCCc1c(C(=O)O)n(C)c3c-2c(Cl)ccc13 [AZD5991] + C[C@@H](Nc1cc(F)cc(F)c1)c1cc(C(=O)N(C)C)cc2c(=O)cc(N3CCOCC3)oc12 [AZD8186] (first compound max 1 µM, 7x7, partner max 3 µM) | 0.0607 | 0.0522 | 0.0621 | 0.0246 | -0.063 | 0.0185 | -0.0378 | -0.0428 | -0.0519 | 0.008 | 0.0052 | 0.043 | 0.0433 | -0.0045 | -0.0134 | -0.0401 | 0.0139 | -0.0002 | 0.0293 | 0.036
